Here are results for four compounds from patent publication US20260315612A1, “Topoisomerase Inhibitors, Methods of Making, and Methods of Use Thereof” (NJ Bio, Inc., priority 2023, published 2026).

For the assay, the system named is SKBR-3 cell line (human breast cancer). As to the kind of experiment: Cytotoxicity Assay (Cell titer glo, 72 h), SKBR-3. Type of assay: cell-based. Particulars: for IC50: Homo sapiens, SK-BR-3, free payloads, 72 hours; for Normalized IC50 (PL IC50/DXD IC50): ratio of payload IC50 to DXD control IC50. As to the method:
Day 1: 2,000 cells/well were plated and incubated at 37° C. overnight.
Day 2: Payload/ADC/vehicle control dilutions were made in respective media and added to cells. Volume added: 50 uL to each well. Starting treatment concentration was 1 mM for free payloads/1 μM for ADC's/10% for vehicle control and then diluted 10-fold down for a total of 11 treatment dilutions. Each concentration was analyzed in triplicates. Media-only wells were used as a control to calculate percent viability.
Day 5: Cell titer glow reagent (volume: 50 uL) was added to each well, the plate was shaken for 5 mins and the luminescence was recorded. Drug Treatment Time: 72 hours. Data Analysis: Percent viability was calculated by dividing the luminescence signal obtained for each treated well by the untreated well (media-only control) and multiplying by 100. Data was next transformed using X=Log (x) and then analyzed with nonlinear regression (curve fit), Dose Response inhibition−log (inhibitor) vs response (3 parameters) using PRISM software to determine the IC50 value.
In general terms: In ATP-based viability assays light output follows the ATP content of the culture.

For `CC[C@@]1(O)C(=O)OCc2c1cc1n(c2=O)Cc2c-1nc1cc(F)c(C)cc1c2Cn1cc(-c2ccccc2NC(=O)CN)nn1` [Payload 66], inhibition was half-maximal at 54.7 nM (IC50) and the “Normalized IC50 (PL IC50/DXD IC50)” value came out at 3.58.

Take `CC[C@@]1(O)C(=O)OCc2c1cc1n(c2=O)Cc2c-1nc1cc(F)c(C)cc1c2Cn1cc(-c2ccc(NC(=O)CN)cc2)nn1` [Payload 67]: the midpoint of inhibition, the IC50, lay at 9.15 nM and the “Normalized IC50 (PL IC50/DXD IC50)” value was 0.60.

Regarding `CC[C@@]1(O)C(=O)OCc2c1cc1n(c2=O)Cc2c-1nc1cc(F)c(C)cc1c2Cn1cc(CCCNC(=O)CO)nn1` [Payload 68], the IC50 (commonly the concentration that inhibits the measured activity by half) turned out to be 17.6 nM and the “Normalized IC50 (PL IC50/DXD IC50)” value came out at 19.01.

For the compound `CC[C@@]1(O)C(=O)OCc2c1cc1n(c2=O)Cc2c-1nc1cc(F)c(C)cc1c2Cn1cc(C(C)(C)NC(=O)CO)nn1` [Payload 69], the IC50 was found to be 95.8 nM and the “Normalized IC50 (PL IC50/DXD IC50)” value turned out to be 104.13.
